Experimental data reported in ChEMBL document CHEMBL4177641, “Identification of an allosteric benzothiazolopyrimidone inhibitor of the oncogenic protein tyrosine phosphatase SHP2” (Bioorg Med Chem, 2017).
Numbering of substitutions follows the chain as printed. Calls of active or inactive are those of the source. The rule behind the calls is not given here.

Experiments:
[1] = test system: T1, Tyrosine-protein phosphatase non-receptor type 11 (Homo sapiens), Q06124 [F285S]; assay: Inhibition of SHP2 F285S mutant (1 to 525 residues) (unknown origin) expressed in Escherichia coli BL21(DE3) at up to 2 uM using DIFMUP as substrate preincubated for 30 mins followed by substrate addition by fluorescence assay
T1 sequence (whole entry): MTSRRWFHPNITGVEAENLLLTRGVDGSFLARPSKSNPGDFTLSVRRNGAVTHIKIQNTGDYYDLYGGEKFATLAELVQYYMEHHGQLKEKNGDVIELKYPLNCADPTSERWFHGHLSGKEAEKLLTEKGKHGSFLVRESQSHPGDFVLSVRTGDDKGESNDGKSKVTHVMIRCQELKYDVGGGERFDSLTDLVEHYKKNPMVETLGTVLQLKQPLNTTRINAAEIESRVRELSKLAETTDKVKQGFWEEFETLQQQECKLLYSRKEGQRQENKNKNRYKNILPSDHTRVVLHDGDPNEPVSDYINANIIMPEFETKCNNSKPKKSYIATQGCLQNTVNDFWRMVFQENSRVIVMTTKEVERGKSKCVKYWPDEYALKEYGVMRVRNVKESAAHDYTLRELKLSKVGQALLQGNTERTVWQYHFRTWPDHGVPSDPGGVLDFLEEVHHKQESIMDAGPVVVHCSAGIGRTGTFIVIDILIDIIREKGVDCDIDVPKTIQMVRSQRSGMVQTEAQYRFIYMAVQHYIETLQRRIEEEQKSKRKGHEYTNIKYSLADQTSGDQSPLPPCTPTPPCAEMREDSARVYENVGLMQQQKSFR

[2] = test system: MOLM-14; assay: Antiproliferative activity against human MOLM14 cells after 3 days by CellTiter-Glo luminescence assay; format: functional, cell-based; details: for IC50: MOLM-14, 72 h
[3] = test system: A2058; assay: Antiproliferative activity against human A2058 cells harboring BRAF V600E mutation at up to 2 uM after 3 days by CellTiter-Glo luminescence assay; format: functional, cell-based
[4] = molecular target: T2, Tyrosine-protein phosphatase non-receptor type 11 (Homo sapiens) (UniProt Q06124); assay: Inhibition of wild-type SHP2 (1 to 525 residues) (unknown origin) expressed in Escherichia coli BL21(DE3) using DIFMUP as substrate preincubated for 30 mins followed by substrate addition by fluorescence assay
T2 sequence (whole entry): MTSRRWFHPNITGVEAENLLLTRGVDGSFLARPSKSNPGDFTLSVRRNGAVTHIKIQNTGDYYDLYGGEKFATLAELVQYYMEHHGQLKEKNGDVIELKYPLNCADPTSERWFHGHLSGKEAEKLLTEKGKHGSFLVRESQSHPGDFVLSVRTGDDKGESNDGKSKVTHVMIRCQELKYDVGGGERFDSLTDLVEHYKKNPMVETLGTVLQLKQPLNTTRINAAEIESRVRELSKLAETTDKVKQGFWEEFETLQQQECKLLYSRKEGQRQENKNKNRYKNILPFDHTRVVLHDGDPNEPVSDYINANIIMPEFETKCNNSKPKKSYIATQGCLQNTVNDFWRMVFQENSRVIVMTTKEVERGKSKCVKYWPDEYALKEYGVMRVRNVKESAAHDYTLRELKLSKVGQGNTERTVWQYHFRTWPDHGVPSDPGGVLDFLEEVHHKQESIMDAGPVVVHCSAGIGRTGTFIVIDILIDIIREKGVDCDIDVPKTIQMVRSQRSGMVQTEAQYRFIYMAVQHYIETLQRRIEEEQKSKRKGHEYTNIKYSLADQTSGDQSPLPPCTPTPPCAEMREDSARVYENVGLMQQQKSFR

[5] = molecular target: T2, Tyrosine-protein phosphatase non-receptor type 11 (Homo sapiens); assay: Inhibition of SHP2 in human MOLM14 cells assessed as reduction in phospho-Erk levels at up to 400 uM after 2 hrs by Western blot analysis; format: cell-based
[6] = test system: T1, Tyrosine-protein phosphatase non-receptor type 11 (Homo sapiens), Q06124 [F285S]; assay: (§1) Inhibition of SHP2 F285S mutant (1 to 525 residues) (unknown origin) expressed in Escherichia coli BL21(DE3) using DIFMUP as substrate preincubated for 30 mins followed by substrate addition by fluorescence assay
[7] = molecular target: Tyrosine-protein phosphatase non-receptor type 11 (Homo sapiens, UniProt Q06124, F285S); assay: as §1
[8] = test system: T3, Tyrosine-protein phosphatase non-receptor type 11 (Homo sapiens), Q06124 [F285S,T253M,Q257L]; assay: Inhibition of SHP2 F285S/T253M/Q257L mutant (1 to 525 residues) (unknown origin) expressed in Escherichia coli BL21(DE3) using DIFMUP as substrate preincubated for 30 mins followed by substrate addition by fluorescence assay
T3 sequence (whole entry): T1 sequence (whole entry) with T253M, Q257L

[9] = molecular target: T2, Tyrosine-protein phosphatase non-receptor type 11 (Homo sapiens); assay: Inhibition of SHP2 PTP domain (1 to 525 residues) (unknown origin) expressed in Escherichia coli BL21(DE3) using DIFMUP as substrate preincubated for 30 mins followed by substrate addition by fluorescence assay

inhibition [1]	IC50 [2] [µM]	SMILES	Activity [3]	other results
inactive	–	COc1ccc2c(c1)sc1nc(Cl)c(Cc3ccccc3)c(=O)n12	inactive	Activity [2]: inactive
–	0.9	CC1(N)CCN(c2cnc(-c3cccc(Cl)c3Cl)c(N)n2)CC1	inactive	–
60%	85	O=c1c(Cc2ccccc2)c(O)nc2sc3cc(Cl)ccc3n12	inactive	inhibition [4]: Active; inhibition [5]: inactive
40%	–	COc1ccc2c(c1)sc1nc(O)c(Cc3ccccc3)c(=O)n12	–	inhibition [6]: Dose-dependent effect; IC50 [7]: 10 µM; inhibition [8]: inactive; inhibition [9]: inactive
–	–	NCc1ccc2c(c1)sc1nc(O)c(Cc3ccccc3)c(=O)n12	inactive	–
